Read-outs that look alike come from different tables or passages of the source.
Assays:
MraY/MurG couple = assay: Coupled assay of MraY and MurG using HP20ss beads; assay type: biochemical, E. coli; details: titration of the MraY/MurG couple, 0.5 mg/mL protein at 10 min time (FIG. 5, Panel B)
Experimental: The MraY/MurG coupled assay reaction procedure was identical to that described above for the assay of MraY. However, quantitation of the coupled system was performed by monitoring the incorporation of radiolabeled MurG co-substrate UDP-N-[1-^14C]acetyl-glucosamine into the lipophilic product Lipid II. Accordingly, this assay mixture was modified to contain 100 mM Tris, pH 7.5, 30 mM MgCl2, 0.15% Triton X-100, 40 μM decaprenol phosphate, 100 μM UDP-MurNAc-pentapeptide, 100 ug/ml phosphatidyl glycerol, and 20 μM, 0.1 μCi UDP-N-[1-^14C]acetyl-glucosamine and typically 0.5 mg/mL of E. coli cell membranes in a final volume of 50 μL. All other procedures, times and temperatures were identical to those described for the MraY assay.

MraY = target: T1, MraY (Escherichia coli, UniProt P0A6W3); assay: Assay of MraY using HP20ss hydrophobic beads; assay type: biochemical, E. coli
T1 construct: MraY activity measured in membranes prepared from wild-type E. coli; endogenous in cells
T1 sequence (P0A6W3 1-360): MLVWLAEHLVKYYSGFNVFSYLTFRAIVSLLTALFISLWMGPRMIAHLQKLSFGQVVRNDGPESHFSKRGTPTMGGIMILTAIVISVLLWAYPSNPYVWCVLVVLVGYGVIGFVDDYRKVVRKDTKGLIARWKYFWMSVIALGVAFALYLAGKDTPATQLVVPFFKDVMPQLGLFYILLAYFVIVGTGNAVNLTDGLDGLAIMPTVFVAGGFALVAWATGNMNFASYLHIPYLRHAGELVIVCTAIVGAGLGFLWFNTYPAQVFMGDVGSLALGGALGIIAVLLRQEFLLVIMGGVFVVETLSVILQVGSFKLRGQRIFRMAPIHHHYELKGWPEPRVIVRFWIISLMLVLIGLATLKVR
Experimental: The reaction catalyzed transfer and use of the radiotracer are shown in FIG. 2, Panel A. The general course of manipulations are diagramed in FIG. 2, Panel D and described in the text. The reaction mixture for the MraY assay included 100 mM Tris, pH 7.5, 30 mM MgCl2, 0.15% Triton X-100, 100 μg/ml Phosphatidyl Glycerol, 40 μM decaprenol phosphate, 14 μM UDP-MurNAC-[^14C]pentapeptide (prepared as described above) and typically 0.5 mg/mL of E. coli cell membranes in a final volume of 50 μL. The phosphatidyl glycerol and decaprenol phosphate, which are supplied in organic solvent, were dried in the reaction tube before the addition of the other components.
The HP20ss resin used to isolate the Lipid I product from the above reaction mixture was equilibrated before use. Briefly, the dry resin was mixed thoroughly with excess methanol in a beaker and allowed to settle for 45 min. […]
For assays whereby the reaction is analyzed at various times, a larger reaction volume was prepared (50 μL is typically appropriate for each time point). […] The filterplate was then quantitated by liquid scintillation spectrometry with a TOPCOUNT (PERKIN ELMER LIFE SCIENCES, Downers Grove, Ill.) using 200 μL of scintillation cocktail (MICROSCINT 40, PERKIN ELMER LIFE SCIENCES, Downers Grove, Ill.) per well.

Substance	IC50 (MraY/MurG couple)	IC50 (MraY/MurG couple; listed as ramoplainin) [µg/mL]	IC50 (MraY; membranes from wild-type E. coli, bead format (text to FIG. 5, Panel A))	IC50 (MraY; titration of the MraY assay, 0.5 mg/mL protein at 10 min time (FIG. 5, Panel A), read-out: IC50) [nM]
ramoplanin	approximately 17 μg/mL	17		
tunicamycin			approximately 1 μg/mL	1100

From patent US20060147934A1, “High speed assay for glycosyl transferases” (priority 2003, published 2006)
